Source: US10144737B2 (ETERNITY BIOSCIENCE INC., priority 2014, dated 2018)

What was measured:
[1] = test system: TMD-8 cells; assay: Cell proliferation assay (CellTiter-Glo), TMD-8 cells; assay type: cell-based; details: Homo sapiens, TMD8, 120 h, 5-day treatment, read-out: TMD8 cell growth (GI50 μM)
Procedure, shortened: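 TMD-8 cells seeded at 5,000–10,000/well, cultured overnight, then exposed to compound (vehicle 0.5% DMSO) for 5 days at 37 °C. Growth read by CellTiter-Glo luminescence; IC50 from log concentration versus % growth inhibition relative to vehicle.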

[2] = target: T1, Btk (Homo sapiens, UniProt Q06187); assay: Btk kinase assay (ADP-Glo); assay type: biochemical; details: ADP-Glo Btk kinase assay kit; ATP 1.2 μM; 60 minutes at room temperature
T1 construct: purchased Promega (Madison, Wis.)
T1 sequence (Q06187 whole entry): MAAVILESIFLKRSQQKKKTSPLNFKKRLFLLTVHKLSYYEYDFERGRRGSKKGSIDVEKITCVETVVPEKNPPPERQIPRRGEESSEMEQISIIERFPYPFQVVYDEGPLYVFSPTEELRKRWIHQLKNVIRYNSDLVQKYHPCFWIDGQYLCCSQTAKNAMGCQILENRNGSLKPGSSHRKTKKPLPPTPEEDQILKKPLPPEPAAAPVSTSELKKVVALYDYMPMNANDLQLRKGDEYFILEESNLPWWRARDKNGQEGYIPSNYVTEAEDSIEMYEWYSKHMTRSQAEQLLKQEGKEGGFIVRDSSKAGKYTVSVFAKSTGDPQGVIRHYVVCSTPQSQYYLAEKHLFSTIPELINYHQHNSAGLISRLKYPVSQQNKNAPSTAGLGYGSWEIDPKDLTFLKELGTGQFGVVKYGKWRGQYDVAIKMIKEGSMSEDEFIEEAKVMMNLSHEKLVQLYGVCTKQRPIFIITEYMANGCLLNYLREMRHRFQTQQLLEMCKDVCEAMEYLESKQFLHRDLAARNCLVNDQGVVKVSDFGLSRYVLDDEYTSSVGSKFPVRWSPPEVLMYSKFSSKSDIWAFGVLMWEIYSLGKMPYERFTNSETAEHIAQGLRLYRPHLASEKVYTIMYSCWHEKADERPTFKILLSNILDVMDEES
Procedure, shortened: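 Luminescent ADP detection after a 60 min reaction at 22±1 °C containing Btk 2 ng/μl, 1.2 μM ATP, 0.3 μM poly GT peptide and 1.4 mM MnCl2. IC50 from log concentration versus percent inhibition relative to DMSO vehicle.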

SMILES	IC50 [2]	GI50 [1]
C=CC(=O)N1CC[C@@H](Nc2ncnc3[nH]c(C#Cc4cccs4)cc23)C1 [Example 75, (R)-1-(3-((6-(thiophen-2-ylethynyl)-7H-pyrrolo[2,3-d]pyrimidin-4-yl)amino)pyrrolidin-1-yl)prop-2-en-1-one]	30 nM	0.0049 µM
C=CC(=O)N1CC[C@@H](Nc2ncnc3[nH]c(C#Cc4ccc5ncccc5c4)cc23)C1 [Example 77, (R)-1-(3-((6-(quinolin-6-ylethynyl)-7H-pyrrolo[2,3-d]pyrimidin-4-yl)amino)pyrrolidin-1-yl)prop-2-en-1-one]	145 nM	0.526 µM
C=CC(=O)N1CC[C@@H](Nc2ncnc3[nH]c(C#CC4CCCCC4)cc23)C1 [Example 78, (R)-1-(3-((6-(cyclohexylethynyl)-7H-pyrrolo[2,3-d]pyrimidin-4-yl)amino)pyrrolidin-1-yl)prop-2-en-1-one]	702 nM	2.68 µM
C=CC(=O)N1CC[C@@H](Nc2ncnc3[nH]c(C#Cc4cnn(C)c4)cc23)C1 [Example 80, (R)-1-(3-((6-((1-methyl-1H-pyrazol-4-yl)ethynyl)-7H-pyrrolo[2,3-d]pyrimidin-4-yl)amino)pyrrolidin-1-yl)prop-2-en-1-one]	255 nM	0.51 µM
C=CC(=O)N1CC[C@@H](Nc2ncnc3[nH]c(C#CCOc4ccccc4OC(F)(F)F)cc23)C1 [Example 81, (R)-1-(3-((6-(3-(2-(trifluoromethoxy)phenoxy)prop-1-yn-1-yl)-7H-pyrrolo[2,3-d]pyrimidin-4-yl)amino)pyrrolidin-1-yl)prop-2-en-1-one]	33 nM	0.003 µM
C=CC(=O)N1CC[C@@H](Nc2ncnc3[nH]c(C#CCOc4ccccc4C#N)cc23)C1 [Example 82, (R)-1-(3-((6-(3-(2-cyanophenoxy)prop-1-yn-1-yl)-7H-pyrrolo[2,3-d]pyrimidin-4-yl)amino)pyrrolidin-1-yl)prop-2-en-1-one]	38 nM	0.0045 µM
C=CC(=O)N1CC[C@@H](Nc2ncnc3[nH]c(C#CCOC4CCCCO4)cc23)C1 (stereo partly drawn) [Example 84, 1-((3R)-3-((6-(3-((tetrahydro-2H-pyran-2-yl)oxy)prop-1-yn-1-yl)-7H-pyrrolo[2,3-d]pyrimidin-4-yl)amino)pyrrolidin-1-yl)prop-2-en-1-one]	136 nM	1.09 µM
C=CC(=O)N1CC[C@@H](Nc2ncnc3[nH]c(C#CCn4ncc5ccccc54)cc23)C1 [Example 86, (R)-1-(3-((6-(3-(1H-indazol-1-yl)prop-1-yn-1-yl)-7H-pyrrolo[2,3-d]pyrimidin-4-yl)amino)pyrrolidin-1-yl)prop-2-en-1-one]	18 nM	0.018 µM
C=CC(=O)N1CC[C@@H](Nc2ncnc3[nH]c(C#CCOc4ccccc4C(F)(F)F)cc23)C1 [Example 87, (R)-1-(3-((6-(3-(2-(trifluoromethyl)phenoxy)prop-1-yn-1-yl)-7H-pyrrolo[2,3-d]pyrimidin-4-yl)amino)pyrrolidin-1-yl)prop-2-en-1-one]	43 nM	0.002 µM
C=CC(=O)N1CC[C@@H](Nc2ncnc3[nH]c(C#CCOc4c(F)cccc4OC)cc23)C1 [Example 88, (R)-1-(3-((6-(3-(2-fluoro-6-methoxyphenoxy)prop-1-yn-1-yl)-7H-pyrrolo[2,3-d]pyrimidin-4-yl)amino)pyrrolidin-1-yl)prop-2-en-1-one]	18 nM	0.02 µM
C=CC(=O)N1CC[C@@H](Nc2ncnc3[nH]c(C#CCOc4cccc5sccc45)cc23)C1 [Example 89, (R)-1-(3-((6-(3-(benzo[b]thiophen-4-yloxy)prop-1-yn-1-yl)-7H-pyrrolo[2,3-d]pyrimidin-4-yl)amino)pyrrolidin-1-yl)prop-2-en-1-one]	148 nM	0.006 µM
C=CC(=O)N1CC[C@@H](Nc2ncnc3[nH]c(C#CCOc4cc(F)ccc4F)cc23)C1 [Example 92, (R)-1-(3-((6-(3-(2,5-difluorophenoxy)prop-1-yn-1-yl)-7H-pyrrolo[2,3-d]pyrimidin-4-yl)amino)pyrrolidin-1-yl)prop-2-en-1-one]	43 nM	0.0038 µM
O=C(C1CC1)N1CC[C@@H](Nc2ncnc3[nH]c(C#CCOc4ccccc4F)cc23)C1 [Example 93, (R)-cyclopropyl(3-((6-(3-(2-fluorophenoxy)prop-1-yn-1-yl)-7H-pyrrolo[2,3-d]pyrimidin-4-yl)amino)pyrrolidin-1-yl)methanone]	578 nM	4.2 µM
O=C([C@H]1C[C@H]1F)N1CC[C@@H](Nc2ncnc3[nH]c(C#CCOc4ccccc4F)cc23)C1 [Example 94, ((1R,2R)-2-fluorocyclopropyl)((R)-3-((6-(3-(2-fluorophenoxy)prop-1-yn-1-yl)-7H-pyrrolo[2,3-d]pyrimidin-4-yl)amino)pyrrolidin-1-yl)methanone]	346 nM	3.58 µM
C=CC(=O)N1CCC[C@@H](Nc2ncnc3[nH]c(C#Cc4ccc5c(c4)OCO5)cc23)C1 [Example 97, (R)-1-(3-((6-(benzo[d][1,3]dioxol-5-ylethynyl)-7H-pyrrolo[2,3-d]pyrimidin-4-yl)amino)piperidin-1-yl)prop-2-en-1-one]	27 nM	0.004 µM
C=CC(=O)N1CC[C@@H](Nc2ncnc3[nH]c(C#CCOc4cccc(F)c4Cl)nc23)C1 [Example 100, (R)-1-(3-((8-(3-(2-chloro-3-fluorophenoxy)prop-1-yn-1-yl)-9H-purin-6-yl)amino)pyrrolidin-1-yl)prop-2-en-1-one]	32 nM	0.006 µM

Now those with a lower IC50 [2], led by results:

IC50 [2]	SMILES	GI50 [1]
0.1 nM	C=CC(=O)N1CC[C@@H](Nc2ncnc3[nH]c(C#Cc4ccc5sccc5c4)cc23)C1 [Example 73, (R)-1-(3-((6-(benzo[b]thiophen-5-ylethynyl)-7H-pyrrolo[2,3-d]pyrimidin-4-yl)amino)pyrrolidin-1-yl)prop-2-en-1-one]	0.001 µM
0.03 nM	C=CC(=O)N1CC[C@@H](Nc2ncnc3[nH]c(C#Cc4ccc5occc5c4)cc23)C1 [Example 74, (R)-1-(3-((6-(benzofuran-5-ylethynyl)-7H-pyrrolo[2,3-d]pyrimidin-4-yl)amino)pyrrolidin-1-yl)prop-2-en-1-one]	0.0012 µM
1 nM	C=CC(=O)N1CC[C@@H](Nc2ncnc3[nH]c(C#Cc4ccsc4)cc23)C1 [Example 76, (R)-1-(3-((6-(thiophen-3-ylethynyl)-7H-pyrrolo[2,3-d]pyrimidin-4-yl)amino)pyrrolidin-1-yl)prop-2-en-1-one]	0.0032 µM
2 nM	C=CC(=O)N1CC[C@@H](Nc2ncnc3[nH]c(C#Cc4ccoc4)cc23)C1 [Example 79, (R)-1-(3-((6-(furan-3-ylethynyl)-7H-pyrrolo[2,3-d]pyrimidin-4-yl)amino)pyrrolidin-1-yl)prop-2-en-1-one]	0.031 µM
8 nM	C=CC(=O)N1CC[C@@H](Nc2ncnc3[nH]c(C#CCOc4cccc5c4OCO5)cc23)C1 [Example 83, (R)-1-(3-((6-(3-(benzo[d][1,3]dioxol-4-yloxy)prop-1-yn-1-yl)-7H-pyrrolo[2,3-d]pyrimidin-4-yl)amino)pyrrolidin-1-yl)prop-2-en-1-one]	0.0017 µM
7 nM	C#CC(=O)N1CC[C@@H](Nc2ncnc3[nH]c(C#CCOc4ccccc4F)cc23)C1 [Example 85, (R)-1-(3-((6-(3-(2-fluorophenoxy)prop-1-yn-1-yl)-7H-pyrrolo[2,3-d]pyrimidin-4-yl)amino)pyrrolidin-1-yl)prop-2-yn-1-one]	0.091 µM
14 nM	C=CC(=O)N1CC[C@@H](Nc2ncnc3[nH]c(C#CCOc4c(F)cccc4F)cc23)C1 [Example 90, (R)-1-(3-((6-(3-(2,6-difluorophenoxy)prop-1-yn-1-yl)-7H-pyrrolo[2,3-d]pyrimidin-4-yl)amino)pyrrolidin-1-yl)prop-2-en-1-one]	0.014 µM
8 nM	C=CC(=O)N1CC[C@@H](Nc2ncnc3[nH]c(C#CCOc4cccc(F)c4F)cc23)C1 [Example 91, (R)-1-(3-((6-(3-(2,3-difluorophenoxy)prop-1-yn-1-yl)-7H-pyrrolo[2,3-d]pyrimidin-4-yl)amino)pyrrolidin-1-yl)prop-2-en-1-one]	0.0015 µM
14 nM	C=CC(=O)N1CCC[C@@H](Nc2ncnc3[nH]c(C#Cc4ccccc4)cc23)C1 [Example 96, (R)-1-(3-((6-(phenylethynyl)-7H-pyrrolo[2,3-d]pyrimidin-4-yl)amino)piperidin-1-yl)prop-2-en-1-one]	0.066 µM
6 nM	C=CC(=O)N1CC[C@@H](Nc2ncnc3[nH]c(C#CCOc4c(F)cccc4F)nc23)C1 [Example 98, (R)-1-(3-((8-(3-(2,6-difluorophenoxy)prop-1-yn-1-yl)-9H-purin-6-yl)amino)pyrrolidin-1-yl)prop-2-en-1-one]	0.005 µM
0.3 nM	C=CC(=O)N1CC[C@@H](Nc2ncnc3[nH]c(C#CCOc4cccc(F)c4F)nc23)C1 [Example 99, (R)-1-(3-((8-(3-(2,3-difluorophenoxy)prop-1-yn-1-yl)-9H-purin-6-yl)amino)pyrrolidin-1-yl)prop-2-en-1-one]	0.001 µM
1 nM	C=CC(=O)N1CC[C@@H](Nc2ncnc3[nH]c(C#CCOc4ccccc4F)nc23)C1 [Example 101, (R)-1-(3-((8-(3-(2-fluorophenoxy)prop-1-yn-1-yl)-9H-purin-6-yl)amino)pyrrolidin-1-yl)prop-2-en-1-one]	0.003 µM
0.2 nM	C=CC(=O)N1CC[C@@H](Nc2ncnc3[nH]c(C#CCOc4ccccc4OC)nc23)C1 [Example 102, (R)-1-(3-((8-(3-(2-methoxyphenoxy)prop-1-yn-1-yl)-9H-purin-6-yl)amino)pyrrolidin-1-yl)prop-2-en-1-one]	0.004 µM
